# Reference: patent EP0326628A1, “Method for inhibiting the release of histamine” (VIPONT PHARMACEUTICAL, INC., priority 1988, dated 1989)
# Like-named read-outs stand apart in the source and are kept apart here.
# Legend:
# mast cells [1] = settings: compound 48/80; read-out: IC50, compound 48/80 induced histamine release; cited from earlier work
# mast cells [2] = settings: release produced by compound 48/80, calcium-ionophore A23187, basic peptide 401; read-out: IC50, inhibition of histamine release; cited from earlier work
# mast cells [3] = assay: Literature (Pearce et al. 1979): inhibition of histamine release produced by compound 48/80, calcium-ionophore A23187 and basic peptide 401; type: cell-based; settings: comparison of IC50 with sanguinarine inhibited histamine release
# mast cells [4] = assay: Histamine release from rat isolated peritoneal mast cells and its inhibition; type: cell-based, male Wistar rat; settings: for Histamine Release (%) / inhibition at 5 µM: Sanguinarine 5 µM
# Method: In exemplifying the invention, mast cells were isolated from the peritoneal fluid of male Wistar rat as described in Sugiyama, K. (1971) Japan J. Pharmacol. 21, 209-226. The mast cells were suspended in a phosphate buffered saline solution consisting of 154 mM sodium chloride, 2.7mM potassium chloride, 0.9 mM calcium chloride, 6.7 mM KH₂PO₄-Na₂HPO₄, (pH 7.3), and 0.01% bovine serum albumin obtained from Sigma.
# For the determination of histamine release and its inhibition by sangainarine., mast cells at a cell density of 10⁵ cells/ml suspended in 0.5 ml of phosphate-buffered saline, were incubated at 37°C for 10 minutes with histamine releasers, more about which is stated below. Sanguinarine was added 5 minutes before the specific histamine releaser. After the action was terminated by the addition of 1.5 ml of ice-cold phosphate-buffered saline solution, the samples were centrifuged at 2,000 rpm for 15 minutes. The histamine in the supernatants and precipitates was determined according to the method of Shore, P.A., Burkhalter, A. and Cohn N.H. (1959) J. Pharmacol. Exp Ther. 127, 182-186. Release of histamine was expressed as a percentage of the total cell content. Percentages of inhibition by sanguinarine were measured according to the following equation: [formula] The sanguinarine chloride was provided from Vipont Laboratories Inc. and is manufactured in the manner disclosed above.
# Histidine-rich polypetide fraction A, known as HRP(F-A) was purified from human saliva in accordance with the procedure of Sugiyama, K., Suzuki, Y and Furuta, H (1985) Life Sciences. 37, 475-480. The comparison was carried out with known histamine releasers, namely, 48/80; Concanavalin A; calcium-ionophore A23187. These releasers may be obtained from Sigma Co.
# With regard to Figure 1, inhibition by sanguinarine of histamine release induced by compound 48/80 is shown. The mast cells were incubated at 37°C for 10 minutes with and without compound 48/80 in the presence of sanguinarine in varying concentrations. (●) Sanguinarine with compound 48/80 (0.5 µ g/ml), (0) Sanguinarine without compound 48/80.
structure (smiles),measurement,setting,value
COc1ccc2c(c1)c(CC(=O)O)c(C)n2C(=O)c1ccc(Cl)cc1 [indomethacin],IC50,mast cells [1],75 µM
Cn1c(=O)c2[nH]cnc2n(C)c1=O [theophylline],IC50,mast cells [2],10 to 1000 µM
same,times less active than sanguinarine,mast cells [3],10 to 100 times
O=C(O)c1cc(=O)c2c(OCC(O)COc3cccc4oc(C(=O)O)cc(=O)c34)cccc2o1 [cromoglycate],IC50,mast cells [2],10 to 1000 µM
same,times less active than sanguinarine,mast cells [3],10 to 100 times
C[C@]12CCC(=O)C=C1CC[C@@H]1[C@@H]2[C@@H](O)C[C@@]2(C)[C@H]1CC[C@]2(O)C(=O)CO [hydrocortisone],IC50,mast cells [1],2100 µM
"C[n+]1cc2c3c(ccc2c2ccc4cc5c(cc4c21)OCO5)OCO3 [Sanguinarine, sanguinarine]",Histamine Release (%),mast cells [4]; A23187 (1 µ M),21.1%
same,Histamine Release (%),mast cells [4]; Compound 48/80 (0.5 µ g/ml),15.4%
same,Histamine Release (%),mast cells [4]; Con A (10 µg/ml) in the presence of phosphatidylserine (10 µ g/ml),27.3%
same,Histamine Release (%),mast cells [4]; HRP (16 µ M),17.6%
same,IC50,"mast cells [4]; Rattus norvegicus, Mast cell, 10 min, compound 48/80 (0.5 µ g/ml), 37°C, 10 minutes, Figure 1, read-out: IC50 (inhibition concentration), 48/80 induced histamine release from mast cells",~2 µM
same,inhibition at 5 µM,"mast cells [4]; Rattus norvegicus, Mast cell, A23187 (1 µ M)",63.4%
same,inhibition at 5 µM,"mast cells [4]; Rattus norvegicus, Mast cell, Compound 48/80 (0.5 µ g/ml)",78.7%
same,inhibition at 5 µM,"mast cells [4]; Rattus norvegicus, Mast cell, Con A (10 µg/ml) in the presence of phosphatidylserine (10 µ g/ml)",56.6%
same,inhibition at 5 µM,"mast cells [4]; Rattus norvegicus, Mast cell, HRP (16 µ M)",69.4%
same,inhibition at 5 µM,"mast cells [4]; Rattus norvegicus, Mast cell, Triton X-100 (0.01 %)",-10.6%
same,Histamine Release (%),mast cells [4]; Triton X-100 (0.01 %),93.8%
O=C([O-])c1ccccc1O.[Na+] [sodium salicylate],IC50,mast cells [1],1600 µM
